Assay [1] deals with T1, isolated recombinant JAK1 kinase domain (Homo sapiens, UniProt P23458).
T1 construct: isolated recombinant JAK1 and JAK2 kinase domain
Description: JAK enzyme assay (Caliper LabChip), JAK1. It is filed as biochemical. The following applies: 1.5 nM JAK1, ATP 25 μM, 22° C., 30 minutes; Morrison tight binding model. On the procedure: (§1) The activity of the isolated recombinant JAK1 and JAK2 kinase domain was measured by monitoring phosphorylation of a peptide derived from JAK3 (Val-Ala-Leu-Val-Asp-Gly-Tyr-Phe-Arg-Leu-Thr-Thr, fluorescently labeled on the N-terminus with 5-carboxyfluorescein) using the Caliper LabChip® technology (Caliper Life Sciences, Hopkinton, Mass.). To determine inhibition constants (Ki), compounds were diluted serially in DMSO and added to 50 μL kinase reactions containing purified enzyme (1.5 nM JAK1, or 0.2 nM JAK2), 100 mM HEPES buffer (pH 7.2), 0.015% Brij-35, 1.5 μM peptide substrate, ATP (25 μM), 10 mM MgCl2, 4 mM DTT at a final DMSO concentration of 2%. Reactions were incubated at 22° C. in 384-well polypropylene microtiter plates for 30 minutes and then stopped by addition of 25 μL of an EDTA containing solution (100 mM HEPES buffer (pH 7.2), 0.015% Brij-35, 150 mM EDTA), resulting in a final EDTA concentration of 50 mM. After termination of the kinase reaction, the proportion of phosphorylated product was determined as a fraction of total peptide substrate using the Caliper LabChip® 3000 according to the manufacturer's specifications. Ki values were then determined using the Morrison tight binding model (Morrison, J. F., Biochim. Biophys. Acta. 185:269-296 (1969); William, J. W. and Morrison, J. F., Meth. Enzymol., 63:437-467 (1979)) modified for ATP-competitive inhibition [Ki ═Ki,app/(1+[ATP]/Km,app)].

The target of assay [2] is T2, isolated recombinant JAK2 kinase domain (Homo sapiens, UniProt O60674).
T2 construct: isolated recombinant JAK1 and JAK2 kinase domain
T2 sequence (O60674 849-1124 limits assumed): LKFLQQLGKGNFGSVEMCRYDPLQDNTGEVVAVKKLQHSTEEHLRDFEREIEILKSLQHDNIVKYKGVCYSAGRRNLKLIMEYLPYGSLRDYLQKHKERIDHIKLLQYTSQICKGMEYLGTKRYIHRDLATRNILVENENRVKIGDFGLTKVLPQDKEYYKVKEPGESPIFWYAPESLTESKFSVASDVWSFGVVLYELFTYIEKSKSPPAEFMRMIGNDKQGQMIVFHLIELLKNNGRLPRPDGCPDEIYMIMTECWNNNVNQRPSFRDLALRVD
Nature of the assay: JAK enzyme assay (Caliper LabChip), JAK2. It is filed as biochemical. The following applies: 0.2 nM JAK2, ATP 25 μM, 22° C., 30 minutes; Morrison tight binding model. How it is done: as §1

Where a name gives a salt, the structure may show the parent alone.

The source of these data is patent publication US20180327402A1, “TRIAZOLOPYRIDINE COMPOUNDS AND METHODS OF USE THEREOF” (Genentech, Inc., priority 2015, published 2018).

T1 sequence (P23458 875-1153 limits assumed): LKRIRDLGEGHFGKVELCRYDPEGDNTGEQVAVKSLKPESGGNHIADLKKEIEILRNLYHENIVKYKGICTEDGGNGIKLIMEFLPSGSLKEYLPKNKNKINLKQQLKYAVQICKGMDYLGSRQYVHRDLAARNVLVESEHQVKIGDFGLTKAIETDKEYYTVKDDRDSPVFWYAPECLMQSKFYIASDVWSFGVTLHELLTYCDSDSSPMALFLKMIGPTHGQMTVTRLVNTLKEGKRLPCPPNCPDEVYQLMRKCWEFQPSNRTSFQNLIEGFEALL

Broadly, the Ki is the dissociation constant of the complex between target and ligand, obtained from inhibition or displacement. Take `CN(C)C(=O)CN1CCC2(CC1)CN(C(=O)N1CC=C(c3cccn4nc(Nc5cnn(C)c5)nc34)CC1)C2` [I, N,N-dimethyl-2-[2-[4-[2-[(1-methylpyrazol-4-yl)amino]-[1,2,4]triazolo[1,5-a]pyridin-8-yl]-3,6-dihydro-2H-pyridine-1-carbonyl]-2,7-diazaspiro[3.5]nonan-7-yl]acetamide]: the figures for the Ki in assay [1] and in assay [2] were 190000 pM and 86000 pM, respectively.

With `Cn1cc(Nc2nc3c(N4CCC(CO)(c5ccc(Cl)cc5)CC4)cccn3n2)cn1` [A, [4-(4-chlorophenyl)-1-[2-[(1-methylpyrazol-4-yl)amino]-[1,2,4]triazolo[1,5-a]pyridin-8-yl]-4-piperidyl]methanol], the Ki in assay [1] was determined as 180 pM; in assay [2] it was 130 pM.

On to `OCC1(c2ccc(Cl)cc2)CCN(c2cccn3nc(Nc4cnn(CC(F)F)c4)nc23)CC1` [Compound 1-14, [4-(4-chlorophenyl)-1-[2-[[1-(2,2-difluoroethyl)pyrazol-4-yl]amino]-[1,2,4]triazolo[1,5-a]pyridin-8-yl]-4-piperidyl]methanol], for which the figures for the Ki in assay [1] and in assay [2] were 160 pM and 130 pM, respectively.

Turning to `OCC1(c2ccc(Cl)cc2)CCN(c2cccn3nc(Nc4cnn(CCN5CCOCC5)c4)nc23)CC1` [Compound 1-2, [4-(4-chlorophenyl)-1-[2-[[1-(2-morpholinoethyl)pyrazol-4-yl]amino]-[1,2,4]triazolo[1,5-a]pyridin-8-yl]-4-piperidyl]methanol; formic acid], the Ki in assay [1] amounted to 520 pM; in assay [2], 160 pM.

With `CSc1ccc(C2(CC#N)CCN(c3cccn4nc(Nc5cnn(CCN6CCN(C(=O)N(C)C)CC6)c5)nc34)CC2)cc1` [Q, 4-[2-[4-[[8-[4-(cyanomethyl)-4-(4-methylsulfanylphenyl)-1-piperidyl]-[1,2,4]triazolo[1,5-a]pyridin-2-yl]amino]pyrazol-1-yl]ethyl]-N,N-dimethyl-piperazine-1-carboxamide], the Ki in assay [1] is 2900 pM; in assay [2], 670 pM.

On to `CC(C)CCn1cc(Nc2nc3c(N4CCC(CO)(c5ccc(Cl)cc5)CC4)cccn3n2)cn1` [Compound 1-13, [4-(4-chlorophenyl)-1-[2-[(1-isopentylpyrazol-4-yl)amino]-[1,2,4]triazolo[1,5-a]pyridin-8-yl]-4-piperidyl]methanol; formic acid], for which the Ki in assay [1] was 750 pM; in assay [2], 440 pM.

For the compound `CN1CCC(n2cc(Nc3nc4c(N5CCC(CO)(c6ccc(Cl)cc6)CC5)cccn4n3)cn2)CC1` [Compound 1-12, [4-(4-chlorophenyl)-1-[2-[[1-(1-methyl-4-piperidyl)pyrazol-4-yl]amino]-[1,2,4]triazolo[1,5-a]pyridin-8-yl]-4-piperidyl]methanol; formic acid], the Ki in assay [1] is 270 pM; in assay [2], 190 pM.

Consider `CSc1ccc(C2(CC#N)CCN(c3cccn4nc(Nc5cnn(CCNC6COC6)c5)nc34)CC2)cc1` [P, 2-[4-(4-methylsulfanylphenyl)-1-[2-[[1-[2-(oxetan-3-ylamino)ethyl]pyrazol-4-yl]amino]-[1,2,4]triazolo[1,5-a]pyridin-8-yl]-4-piperidyl]acetonitrile], for which the figures for the Ki in assay [1] and in assay [2] were 2400 pM and 720 pM, respectively.

As to `OCC1(c2ccc(Cl)cc2)CCN(c2cccn3nc(Nc4cnn(Cc5ccncc5)c4)nc23)CC1` [Compound 1-6, [4-(4-chlorophenyl)-1-[2-[[1-(4-pyridylmethyl)pyrazol-4-yl]amino]-[1,2,4]triazolo[1,5-a]pyridin-8-yl]-4-piperidyl]methanol; formic acid], the figures for the Ki in assay [1] and in assay [2] were 450 pM and 120 pM, respectively.

For the compound `Cn1cc(Nc2nc3c(N4CCC(c5ccc(Cl)cc5)(C(O)CN5CCOCC5)CC4)cccn3n2)cn1` (racemic) [B, 1-[4-(4-chlorophenyl)-1-[2-[(1-methylpyrazol-4-yl)amino]-[1,2,4]triazolo[1,5-a]pyridin-8-yl]-4-piperidyl]-2-morpholino-ethanol], the Ki in assay [1] was found to be 970 pM; in assay [2], 580 pM.

On to `CSc1ccc(C2(CC#N)CCN(c3cccn4nc(Nc5cnn(CCN6CCN(C(C)=O)CC6)c5)nc34)CC2)cc1` [L, 2-[1-[2-[[1-[2-(4-acetylpiperazin-1-yl)ethyl]pyrazol-4-yl]amino]-[1,2,4]triazolo[1,5-a]pyridin-8-yl]-4-(4-methylsulfanylphenyl)-4-piperidyl]acetonitrile], for which the Ki in assay [1] turned out to be 2600 pM; in assay [2], 650 pM.

On to `OCC1(c2ccc(Cl)cc2)CCN(c2cccn3nc(Nc4cnn(C5CCN(Cc6ccccc6)CC5)c4)nc23)CC1` [Compound 1-3, [1-[2-[[1-(1-benzyl-4-piperidyl)pyrazol-4-yl]amino]-[1,2,4]triazolo[1,5-a]pyridin-8-yl]-4-(4-chlorophenyl)-4-piperidyl]methanol; formic acid], for which the Ki worked out at 630 pM in assay [1] and 380 pM in assay [2].

As to `CSc1ccc(C2(CC#N)CCN(c3cccn4nc(Nc5cnn(CCN(C)C)c5)nc34)CC2)cc1` [N, 2-[1-[2-[[1-[2-(dimethylamino)ethyl]pyrazol-4-yl]amino]-[1,2,4]triazolo[1,5-a]pyridin-8-yl]-4-(4-methylsulfanylphenyl)-4-piperidyl]acetonitrile], the inhibition constant Ki in assay [1] amounted to 5100 pM; in assay [2], 1200 pM.

Regarding `CSc1ccc(C2(CC#N)CCN(c3cccn4nc(Nc5cnn(CCN6CCN(C7CCOCC7)CC6)c5)nc34)CC2)cc1` [M, 2-[4-(4-methylsulfanylphenyl)-1-[2-[[1-[2-(4-tetrahydropyran-4-ylpiperazin-1-yl)ethyl]pyrazol-4-yl]amino]-[1,2,4]triazolo[1,5-a]pyridin-8-yl]-4-piperidyl]acetonitrile], the Ki in assay [1] worked out at 3300 pM; in assay [2] it was 960 pM.

Regarding `Cn1cc(Nc2nc3c(N4CCC(CCN5CCOCC5)(c5ccc(Cl)cc5)CC4)cccn3n2)cn1` [H, 8-[4-(4-chlorophenyl)-4-(2-morpholinoethyl)-1-piperidyl]-N-(1-methylpyrazol-4-yl)-[1,2,4]triazolo[1,5-a]pyridin-2-amine], the Ki in assay [1] was 11000 pM; in assay [2], 3500 pM.

Take `OCC1(c2ccc(Cl)cc2)CCN(c2cccn3nc(Nc4cnn(CC5CCNCC5)c4)nc23)CC1` [Compound 1-1, [4-(4-chloropenyl)-1-[2-[[1-(4-piperidylmethyl)pyrazol-4-yl]amino]-[1,2,4]triazolo[1,5-a]pyridin-8-yl]-4-piperidyl]methanol; hydrochloride]: the Ki came to 210 pM in assay [1] and 45 pM in assay [2].

With `CN1CCN(CCCn2cc(Nc3nc4c(N5CCC(CO)(c6ccc(Cl)cc6)CC5)cccn4n3)cn2)CC1` [Compound 1-9, [4-(4-chlorophenyl)-1-[2-[[1-[3-(4-methylpiperazin-1-yl)propyl]pyrazol-4-yl]amino]-[1,2,4]triazolo[1,5-a]pyridin-8-yl]-4-piperidyl]methanol; formic acid], the values for the Ki in assay [1] and in assay [2] were 550 pM and 260 pM, respectively.

In the case of `CSc1ccc(C2(CC#N)CCN(c3cccn4nc(Nc5cnn(CCN6CCC(N7CCOCC7)CC6)c5)nc34)CC2)cc1` [K, 2-[4-(4-methylsulfanylphenyl)-1-[2-[[1-[2-(4-morpholino-1-piperidyl)ethyl]pyrazol-4-yl]amino]-[1,2,4]triazolo[1,5-a]pyridin-8-yl]-4-piperidyl]acetonitrile], the values for the Ki in assay [1] and in assay [2] were 2700 pM and 1100 pM, respectively.

For the compound `O=C(CCC(F)(F)F)N1CC=C(c2cccn3nc(Nc4cnn(CC(F)F)c4)nc23)CC1` [Compound 2-1, 1-[4-[2-[[1-(2,2-difluoroethyl)pyrazol-4-yl]amino]-[1,2,4]triazolo[1,5-a]pyridin-8-yl]-3,6-dihydro-2H-pyridin-1-yl]-4,4,4-trifluoro-butan-1-one], the Ki in assay [1] stood at 740 pM; in assay [2], 880 pM.
